Measurements as given in patent US12084473B2, “β-D-2′-deoxy-2′-α-fluoro-2′-β-C-substituted-2-modified-N6-substituted purine nucleotides for HCV treatment” (Atea Pharmaceuticals, Inc., priority 2015, dated 2024).
Like-named read-outs stand apart in the source and are kept apart here.

Key:
[1] = test system: other RNA or DNA viruses; assay: Activity against other RNA or DNA viruses; assay type: cell-based; conditions: at concentrations up to 100 μM
[2] = test system: host cell lines; assay: Toxicity in host cell lines; assay type: cell-based; conditions: at concentrations up to 100 μM
[3] = Human Bone Marrow Progenitor Cell Assay; assay type: cell-based; conditions: human, fresh human bone marrow progenitor cells; read-out: CC50 in human bone marrow stem cells
Procedure: Fresh human bone marrow progenitor cells (Invitrogen) suspended in either BFU-E or GM-CSF-specific culture medium were added, at 10^5 cells/well, to triplicate serial dilutions of TA in 6-well plates. After 14-day incubations, colony counts were used to determine CC50 values. BFU-E colonies were confirmed using the benzidene technique.

[4] = iPS Cardiomyocyte Assay; assay type: cell-based, human; conditions: human, iPS cardiomyocytes
Procedure: iPS Cardiomyocytes (Cellular Dynamics) were seeded in microliter plates at 1.5×10^4 cells per well. After 48-hr incubation, cells were washed and maintenance medium containing serially diluted TA was added in triplicate. After incubating for an additional 3 days, cell viability was measured by staining with XTT and CC50 values were calculated.

[5] = biological target: T1, human DNA polymerase β (Homo sapiens, UniProt P06746); assay: Human DNA Polymerase Assays; assay type: biochemical; conditions: at concentrations up to 100 μM
T1 construct: purchased CHIMERx
Procedure: (§1) Inhibition of human DNA polymerases α, β and γ (CHIMERx) was determined in triplicate in reaction mixtures of serially diluted TA, 0.05 mM dCTP, dTTP, and dATP, 10 μCi [^32P]-α-dGTP (800 Ci/mmol), 20 μg activated calf thymus DNA and additional reagents specific for each polymerase.

[6] = biological target: T2, human DNA polymerase γ (Homo sapiens, UniProt P54098); assay: Human DNA Polymerase Assays; assay type: biochemical; conditions: at concentrations up to 100 μM
T2 construct: purchased CHIMERx
T2 sequence (P54098 1-1239): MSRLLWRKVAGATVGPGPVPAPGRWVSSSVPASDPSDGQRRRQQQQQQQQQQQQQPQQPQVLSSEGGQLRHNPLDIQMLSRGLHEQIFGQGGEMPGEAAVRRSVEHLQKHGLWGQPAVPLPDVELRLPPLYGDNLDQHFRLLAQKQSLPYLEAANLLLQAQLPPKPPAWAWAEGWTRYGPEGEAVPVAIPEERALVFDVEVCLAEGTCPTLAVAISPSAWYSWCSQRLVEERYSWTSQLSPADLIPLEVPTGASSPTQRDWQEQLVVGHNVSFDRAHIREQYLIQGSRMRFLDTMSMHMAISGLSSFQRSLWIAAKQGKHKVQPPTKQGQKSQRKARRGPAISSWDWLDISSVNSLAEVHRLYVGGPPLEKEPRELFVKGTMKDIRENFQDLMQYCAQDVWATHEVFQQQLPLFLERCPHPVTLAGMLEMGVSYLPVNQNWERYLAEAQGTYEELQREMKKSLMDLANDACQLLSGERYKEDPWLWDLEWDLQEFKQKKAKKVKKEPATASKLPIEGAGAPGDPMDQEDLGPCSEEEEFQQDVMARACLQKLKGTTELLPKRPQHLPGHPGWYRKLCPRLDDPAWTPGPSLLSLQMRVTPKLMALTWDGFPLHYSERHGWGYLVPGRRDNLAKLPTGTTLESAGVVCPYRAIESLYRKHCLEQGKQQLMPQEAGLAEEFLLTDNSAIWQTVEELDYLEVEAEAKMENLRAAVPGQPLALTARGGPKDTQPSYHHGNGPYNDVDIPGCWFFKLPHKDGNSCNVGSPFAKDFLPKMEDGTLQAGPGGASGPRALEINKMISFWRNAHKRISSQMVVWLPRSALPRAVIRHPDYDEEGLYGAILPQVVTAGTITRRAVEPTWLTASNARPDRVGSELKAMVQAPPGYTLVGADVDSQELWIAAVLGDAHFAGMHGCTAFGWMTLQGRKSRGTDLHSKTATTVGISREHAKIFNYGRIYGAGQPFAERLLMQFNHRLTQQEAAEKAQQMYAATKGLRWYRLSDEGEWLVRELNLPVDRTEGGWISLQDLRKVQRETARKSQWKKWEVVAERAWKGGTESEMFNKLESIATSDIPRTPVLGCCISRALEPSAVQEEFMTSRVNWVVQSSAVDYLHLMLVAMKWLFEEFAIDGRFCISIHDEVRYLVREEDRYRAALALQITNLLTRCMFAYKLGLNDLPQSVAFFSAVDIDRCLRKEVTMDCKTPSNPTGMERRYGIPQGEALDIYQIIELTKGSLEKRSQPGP
Procedure: as §1

[7] = Stability in fresh human whole blood; assay type: in vitro ADME; conditions: 10 μM, up to 120 min, FIG. 5
Procedure: The stability of selected compounds in fresh human whole blood and in human liver S9 fraction was determined in incubations containing 10 μM test compound. After incubations of 0, 30, 60 min, and up to 120 min, aliquots were removed and immediately extracted with 3 volumes of ice-cold methanol/acetonitrile (1:1, v/v). Extracts were centrifuged and supernatants were analyzed by LC-MS/MS for concentrations of unchanged test compound and potential metabolites.

[8] = test system: micro-patterned human hepatocyte co-cultures; assay: Human Hepatocyte Co-Cultures (HepatoPac): cytotoxicity and hepatocyte health; assay type: cell-based; conditions: for IC50: Homo sapiens, Hepatocyte
Procedure: Cytotoxicity and hepatocyte health were assessed in triplicate by measuring ALT leakage, urea production, albumin secretion and cellular ATP contents in micro-patterned human hepatocyte co-cultures (HepatoPac®, Hepregen Corporation) prepared by seeding cryopreserved human hepatocytes (single donor) and 3T3 J2 mouse fibroblasts in microtiter plates according to procedures established by Hepregen. Culture media was replaced with fresh media containing TA, test article, (0, 1, 10 or 30 μM) every 2 or 3 days through day 16. […] Cellular ATP levels were measured on days 9 and 21. ATP signals in stromal-only control cultures (murine 3T3 fibroblasts) were subtracted from those of human HepatoPac co-cultures to obtain hepatocyte-specific effects. See, Table 4, 5 and 6 below.

**Q.** With `CC(C)OC(=O)[C@H](C)N[P@](=O)(OCC1O[C@@H](n2cnc3c(N(C)C4CC4)nc(N)nc32)[C@](C)(F)[C@@H]1O)Oc1ccccc1` (stereo partly drawn) [Compound 27, isopropyl ((((S)-(2R,3R,4R,5R)-5-(2-amino-6-(methylcyclopropanamino)-9H-purin-9-yl)-4-fluoro-3-hydroxy-4-methyltetrahydrofuran-2-yl)methoxy)-phenoxy-phosphoryl)-L-alaninate] as the compound, how does the “activity against other RNA or DNA viruses” value [1] read?
**A.** no activity

**Q.** And the “toxicity in all host cell lines” value [2]?
**A.** no toxicity

**Q.** What about the CC50 at 14 day [3] of the same compound?
**A.** > 100 µM

**Q.** What about the CC50 at 3 day [4] of the same compound?
**A.** > 100 µM

**Q.** And the “inhibition of human DNA polymerase β” value [5]?
**A.** No inhibition

**Q.** What about the “inhibition of human DNA polymerase γ” value [6] of the same compound?
**A.** No inhibition

**Q.** For `CC(C)OC(=O)[C@H](C)N[P@](=O)(OCC1O[C@@H](n2cnc3c(N(C)C)nc(N)nc32)[C@](C)(F)[C@@H]1O)Oc1ccccc1` (stereo partly drawn) [Compound 25, isopropyl ((((S)-(2R,3R,4R,5R)-5-(2-amino-6-(dimethylamino)-9H-purin-9-yl)-4-fluoro-3-hydroxy-4-methyltetrahydrofuran-2-yl)methoxy)-phenoxy-phosphoryl)-L-alaninate], which “activity against other RNA or DNA viruses” value [1] is on record?
**A.** no activity

**Q.** What about the “toxicity in all host cell lines” value [2] of the same compound?
**A.** no toxicity

**Q.** What about the CC50 at 14 day [3] of the same compound?
**A.** > 100 µM

**Q.** What about the CC50 at 3 day [4] of the same compound?
**A.** > 100 µM

**Q.** And the “inhibition of human DNA polymerase β” value [5]?
**A.** No inhibition

**Q.** What about the “inhibition of human DNA polymerase γ” value [6] of the same compound?
**A.** No inhibition

**Q.** Which results are given for `CNc1nc(N)nc2c1ncn2[C@@H]1OC(CO[P@@](=O)(N[C@@H](C)C(=O)OC(C)C)Oc2ccccc2)[C@@H](O)[C@@]1(C)F` (stereo partly shown) [Compound 5-2]?
**A.** stability in human blood [7]: excellent stability; IC50 ([8]; 48 h, Table 5, Day 2, read-out: Effect on Albumin Secretion, 50% Inhibitory Concentration (IC50)): > 30 µM; IC50 ([8]; 48 h, Table 6, Day 2, read-out: Effect on Albumin Secretion, 50% Inhibitory Concentration (IC50)): > 30 µM; IC50 ([8]; 120 h, Table 5, Day 5, read-out: Effect on Albumin Secretion, 50% Inhibitory Concentration (IC50)): > 30 µM; IC50 ([8]; 120 h, Table 6, Day 5, read-out: Effect on Albumin Secretion, 50% Inhibitory Concentration (IC50)): > 30 µM; IC50 ([8]; 168 h, Table 5, Day 7, read-out: Effect on Albumin Secretion, 50% Inhibitory Concentration (IC50)): > 30 µM; IC50 ([8]; 168 h, Table 6, Day 7, read-out: Effect on Albumin Secretion, 50% Inhibitory Concentration (IC50)): > 30 µM; IC50 ([8]; 216 h, Day 9, read-out: Effect on Cellular ATP Concentrations, 50% Inhibitory Concentration (IC50)): > 30 µM; IC50 ([8]; 216 h, Table 5, Day 9, read-out: Effect on Albumin Secretion, 50% Inhibitory Concentration (IC50)): > 30 µM; IC50 ([8]; 216 h, Table 6, Day 9, read-out: Effect on Albumin Secretion, 50% Inhibitory Concentration (IC50)): > 30 µM; IC50 ([8]; 288 h, Table 6, Day 12, read-out: Effect on Albumin Secretion, 50% Inhibitory Concentration (IC50)): > 30 µM; IC50 ([8]; 384 h, Table 6, Day 16, read-out: Effect on Albumin Secretion, 50% Inhibitory Concentration (IC50)): 24.2 µM; IC50 ([8]; 504 h, Day 21, read-out: Effect on Cellular ATP Concentrations, 50% Inhibitory Concentration (IC50)): 12.8 µM; IC50 ([8]; 504 h, Table 6, Day 21, read-out: Effect on Albumin Secretion, 50% Inhibitory Concentration (IC50)): 14.5 µM; signs of cytotoxicity by ALT leakage, albumin secretion, urea production and cellular ATP content ([8]; concentrations up to 30 μM, up to 12 days): no signs of cytotoxicity; cytotoxicity with extended exposure ([8]; up to 21 days of culture): minor indications of cytotoxicity
